Data from the NIST ThermoML archive (doi:10.1016/j.jct.2017.12.020).

Legend:
[1] = Liquid; for speed of sound: Frequency=2 MHz, Pulse-echo method; for mass density: Vibrating tube method
[2] = molar heat capacity at constant pressure; details: 101.33 kPa, Liquid, Small sample (50 mg) DSC

CCCCCCCCCCCC(=O)OCC [ethyl dodecanoate]
[1]
Details	mass density [kg/m3]	speed of sound [m/s]
293.15 K, 100 kPa	–	1339.9
293.15 K, 101.33 kPa	862.2	–
293.15 K, 10000 kPa	–	1390.8
293.15 K, 20000 kPa	–	1436.7
293.15 K, 30000 kPa	–	1479.3
293.15 K, 40000 kPa	–	1519
293.15 K, 50000 kPa	–	1555.9
293.15 K, 60000 kPa	–	1591.9
293.15 K, 70000 kPa	–	1626.2
293.15 K, 80000 kPa	–	1659.7
293.15 K, 90000 kPa	–	1690.9
293.15 K, 100000 kPa	–	1720.9
293.15 K, 120000 kPa	–	1778.5
303.15 K, 101.33 kPa	854.3	–
313.15 K, 100 kPa	–	1266.1
313.15 K, 101.33 kPa	846.5	–
313.15 K, 10000 kPa	–	1317.6
313.15 K, 20000 kPa	–	1365
313.15 K, 30000 kPa	–	1409.3
313.15 K, 40000 kPa	–	1452.1
313.15 K, 50000 kPa	–	1491.4
313.15 K, 60000 kPa	–	1529.2
313.15 K, 70000 kPa	–	1564.8
313.15 K, 80000 kPa	–	1600.2
313.15 K, 90000 kPa	–	1632.3
313.15 K, 100000 kPa	–	1663
313.15 K, 120000 kPa	–	1721.9
313.15 K, 140000 kPa	–	1777.9
313.15 K, 160000 kPa	–	1830.9
323.15 K, 101.33 kPa	838.8	–
333.15 K, 100 kPa	–	1194
333.15 K, 101.33 kPa	831.1	–
333.15 K, 10000 kPa	–	1250.3
333.15 K, 20000 kPa	–	1300.9
333.15 K, 30000 kPa	–	1348
333.15 K, 40000 kPa	–	1393.4
333.15 K, 50000 kPa	–	1434.3
333.15 K, 60000 kPa	–	1473.3
333.15 K, 70000 kPa	–	1509.8
333.15 K, 80000 kPa	–	1545.4
333.15 K, 90000 kPa	–	1578.6
333.15 K, 100000 kPa	–	1610.9
333.15 K, 120000 kPa	–	1674.1
333.15 K, 140000 kPa	–	1730.4
333.15 K, 160000 kPa	–	1782.7
333.15 K, 180000 kPa	–	1835.3
333.15 K, 200000 kPa	–	1883.8
343.15 K, 101.33 kPa	823.2	–
353.15 K, 100 kPa	–	1125.7
353.15 K, 101.33 kPa	815.2	–
353.15 K, 10000 kPa	–	1186
353.15 K, 20000 kPa	–	1240.6
353.15 K, 30000 kPa	–	1290.3
353.15 K, 40000 kPa	–	1337.1
353.15 K, 50000 kPa	–	1379.7
353.15 K, 60000 kPa	–	1419.8
353.15 K, 70000 kPa	–	1458.8
353.15 K, 80000 kPa	–	1496.2
353.15 K, 90000 kPa	–	1530.6
353.15 K, 100000 kPa	–	1564.4
353.15 K, 120000 kPa	–	1627
353.15 K, 140000 kPa	–	1685.1
353.15 K, 160000 kPa	–	1740.7
353.15 K, 180000 kPa	–	1793.6
353.15 K, 200000 kPa	–	1843.5

viscosity [mPa·s], [1]
Details	293.15 K	313.15 K	333.15 K	353.15 K
101.33 kPa, Capillary tube (Ostwald / Ubbelohde) method	3.35	2.19	1.55	1.16
10000 kPa, quartz crystal resonator	3.77	2.46	1.74	1.29
20000 kPa, quartz crystal resonator	4.28	2.75	1.91	1.44
30000 kPa, quartz crystal resonator	4.78	3.11	2.13	1.58
40000 kPa, quartz crystal resonator	5.39	3.37	2.33	1.73
50000 kPa, quartz crystal resonator	5.94	3.74	2.55	1.9
60000 kPa, quartz crystal resonator	6.65	4.11	2.82	2.05
70000 kPa, quartz crystal resonator	7.25	4.45	3.08	2.22
80000 kPa, quartz crystal resonator	8.13	4.92	3.29	2.4
90000 kPa, quartz crystal resonator	8.91	5.46	3.6	2.58
100000 kPa, quartz crystal resonator	9.76	5.96	3.94	2.78
120000 kPa, quartz crystal resonator	11.9	6.77	4.55	3.22
140000 kPa, quartz crystal resonator	–	8.06	5.27	3.68
160000 kPa, quartz crystal resonator	–	9.57	6.1	4.19
180000 kPa, quartz crystal resonator	–	–	6.98	4.76
200000 kPa, quartz crystal resonator	–	–	7.85	5.28

[2]
Details	molar heat capacity at constant pressure [J/K/mol]
297.91 K	459.03
307.79 K	464.37
317.66 K	469.8
327.54 K	475.42
337.42 K	481.45
347.29 K	487.46
357.17 K	493.28
367.05 K	499.88
376.92 K	507.07
386.8 K	515.39

CCCCCCCCCCCC(=O)OC [methyl dodecanoate]
[1]
Details	mass density [kg/m3]	speed of sound [m/s]
293.15 K, 100 kPa	–	1351.3
293.15 K, 101.33 kPa	869.2	–
293.15 K, 10000 kPa	–	1400.9
293.15 K, 20000 kPa	–	1445.1
293.15 K, 30000 kPa	–	1486.4
293.15 K, 40000 kPa	–	1526.9
293.15 K, 50000 kPa	–	1563.8
293.15 K, 60000 kPa	–	1600
293.15 K, 70000 kPa	–	1628.6
293.15 K, 80000 kPa	–	1660.5
293.15 K, 90000 kPa	–	1690.9
303.15 K, 101.33 kPa	861.4	–
313.15 K, 100 kPa	–	1276.4
313.15 K, 101.33 kPa	853.8	–
313.15 K, 10000 kPa	–	1328
313.15 K, 20000 kPa	–	1375.3
313.15 K, 30000 kPa	–	1420
313.15 K, 40000 kPa	–	1461.6
313.15 K, 50000 kPa	–	1500.9
313.15 K, 60000 kPa	–	1537
313.15 K, 70000 kPa	–	1573.3
313.15 K, 80000 kPa	–	1607.4
313.15 K, 90000 kPa	–	1637.8
313.15 K, 100000 kPa	–	1671.1
313.15 K, 120000 kPa	–	1728.6
313.15 K, 140000 kPa	–	1784.4
323.15 K, 101.33 kPa	845.8	–
333.15 K, 100 kPa	–	1205.5
333.15 K, 101.33 kPa	837.9	–
333.15 K, 10000 kPa	–	1259.6
333.15 K, 20000 kPa	–	1311
333.15 K, 30000 kPa	–	1357.5
333.15 K, 40000 kPa	–	1401
333.15 K, 50000 kPa	–	1441.3
333.15 K, 60000 kPa	–	1480.9
333.15 K, 70000 kPa	–	1515.7
333.15 K, 80000 kPa	–	1550.8
333.15 K, 90000 kPa	–	1585.9
333.15 K, 100000 kPa	–	1621.9
333.15 K, 120000 kPa	–	1682
333.15 K, 140000 kPa	–	1739.2
333.15 K, 160000 kPa	–	1791.8
333.15 K, 180000 kPa	–	1843.5
333.15 K, 200000 kPa	–	1893.2
343.15 K, 101.33 kPa	830	–
353.15 K, 100 kPa	–	1133.5
353.15 K, 101.33 kPa	822.2	–
353.15 K, 10000 kPa	–	1192.2
353.15 K, 20000 kPa	–	1247.2
353.15 K, 30000 kPa	–	1295.9
353.15 K, 40000 kPa	–	1342.5
353.15 K, 50000 kPa	–	1386.1
353.15 K, 60000 kPa	–	1426.2
353.15 K, 70000 kPa	–	1463.8
353.15 K, 80000 kPa	–	1500.1
353.15 K, 90000 kPa	–	1534.8
353.15 K, 100000 kPa	–	1568.3
353.15 K, 120000 kPa	–	1632.8
353.15 K, 140000 kPa	–	1690.8
353.15 K, 160000 kPa	–	1744.4
353.15 K, 180000 kPa	–	1802.7
353.15 K, 200000 kPa	–	1851.2

viscosity [mPa·s], [1]
Details	293.15 K	313.15 K	333.15 K	353.15 K
101.33 kPa, Capillary tube (Ostwald / Ubbelohde) method	3.14	2.05	1.45	1.09
10000 kPa, quartz crystal resonator	3.53	2.3	1.61	1.21
20000 kPa, quartz crystal resonator	3.96	2.59	1.78	1.33
30000 kPa, quartz crystal resonator	4.4	2.85	1.98	1.48
40000 kPa, quartz crystal resonator	5	3.16	2.18	1.62
50000 kPa, quartz crystal resonator	5.64	3.5	2.39	1.76
60000 kPa, quartz crystal resonator	6.21	3.85	2.62	1.92
70000 kPa, quartz crystal resonator	6.79	4.22	2.82	2.08
80000 kPa, quartz crystal resonator	7.58	4.64	3.07	2.25
90000 kPa, quartz crystal resonator	–	5.06	3.36	2.46
100000 kPa, quartz crystal resonator	–	5.55	3.63	2.65
120000 kPa, quartz crystal resonator	–	6.67	4.26	3.09
140000 kPa, quartz crystal resonator	–	7.67	4.95	3.54
160000 kPa, quartz crystal resonator	–	–	5.75	4.06
180000 kPa, quartz crystal resonator	–	–	6.56	4.64
200000 kPa, quartz crystal resonator	–	–	7.56	5.34

[2]
Details	molar heat capacity at constant pressure [J/K/mol]
297.91 K	433.79
307.79 K	438.57
317.66 K	443.29
327.54 K	448.34
337.42 K	453.83
347.29 K	459.28
357.17 K	464.66
367.05 K	470.72
376.92 K	477.82
386.8 K	485.49
